Assay [1] has as its system human pancreatic MiaPaCa-2 cells. Kind of assay: Tumor cell proliferation assay (ATP Lite), MiaPaCa-2. It is filed as cell-based. To be noted: MIA PaCa-2, 96 h, 4 days. On the procedure:
Assay 2: Tumor Cell Proliferation Assays (ATP Lite)
Murine colon C26, human melanoma A375 and MeI5 or human pancreatic MiaPaCa-2 cells were plated in 96 well Corning white plates (1500 cells/well for C26, and 2000 cells/well for A375, and MiaPaCa-2) and cultured overnight at 37° C. in 5% CO2. Inhibitors were serially diluted in 100% DMSO and subsequently added to cells to reach a final concentration of 0.25% DMSO. The cells were incubated for 4 days in the presence of test compounds in cell growth media (DMEM with 10% fetal bovine serum, 2 mM glutamine for C26, and MiaPaCa-2, and RPMI with 10% fetal bovine serum, 2 mM glutamine for A375). Cell proliferation was quantitated using the ATP lite cell proliferation kit (Packard). Columns 4-6 show the concentration of compounds required to induce 50% cell death (IC50 in μM) of […]. With “+” meaning 3 μM<IC50≦10 μM and “++” IC50≦3 μM and “n.d.” means not determined. Few compounds were also tested on human melanoma cell MeI5.

Assay [2] deals with human melanoma A375 cells. Kind of assay: Tumor cell proliferation assay (ATP Lite), A375. As to conditions: A-375, 96 h, 4 days. It is filed as cell-based. Summed up:
(§1)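 Cells seeded at 1500/well (C26) or 2000/well (A375, MiaPaCa-2) grew overnight, then were exposed to serially diluted compounds (0.25% DMSO final) for 4 days in serum-containing DMEM or RPMI. Viability read by ATPlite luminescence; IC50 is the concentration giving 50% cell death.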

For assay [3], the system named is Murine colon C26 cells. As to the kind of experiment: Tumor cell proliferation assay (ATP Lite), C26. It is filed as cell-based. As to conditions: Mus musculus, 96 h, 4 days. Summed up: as §1
For assay [4], the target named is human MEK1 (Homo sapiens, UniProt Q02750). Kind of assay: MEK-1 Enzyme Assay (LANCE-HTRF). It is filed as biochemical. As to conditions: 100 nM MEK1, 15 μM ATP, 300 nM ERK2, two hours; read-out: MEK inhibition. An outline of the steps:
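TR-FRET readout of MEK1-catalysed ERK1 phosphorylation; after a 2 h reaction, Eu-anti-PY20 (5 nM) and anti-GST-APC (50 nM) were added in buffer with 50 mM EDTA and 0.05% BSA, then incubated 1 h in the dark.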
For orientation: In TR-FRET formats the signal depends on donor and acceptor labels being close together.

Chain of human MEK1 (Q02750 whole entry): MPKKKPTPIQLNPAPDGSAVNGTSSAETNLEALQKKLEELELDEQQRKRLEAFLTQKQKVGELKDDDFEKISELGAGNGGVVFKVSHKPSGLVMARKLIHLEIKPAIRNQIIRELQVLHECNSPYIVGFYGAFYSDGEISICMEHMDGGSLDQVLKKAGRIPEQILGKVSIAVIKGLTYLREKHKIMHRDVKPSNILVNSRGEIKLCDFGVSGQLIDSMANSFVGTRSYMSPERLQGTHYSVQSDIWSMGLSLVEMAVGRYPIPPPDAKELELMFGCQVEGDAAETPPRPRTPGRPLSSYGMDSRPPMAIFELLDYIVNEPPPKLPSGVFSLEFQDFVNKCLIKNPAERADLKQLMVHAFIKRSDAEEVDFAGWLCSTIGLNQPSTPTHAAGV

`O=C(NOC[C@H](O)CO)c1ccncc1Nc1ccc(I)cc1` [Example 96, N-{[(2R)-2,3-dihydroxypropyl]oxy}-3-(4-iodophenylamino)-isonicotinamide]: the IC50 in assay [1] is no more than 3 µM; in assay [2] it was no more than 3 µM; in assay [3] it was no more than 3 µM; in assay [4], less than 1 µM.

In the case of `C[C@H](O)CNC(=O)c1ccncc1Nc1ccc(I)cc1F` [Example 41, 3-[(2-fluoro-4-iodophenyl)amino]-N-[(2S)-2-hydroxypropyl]-isonicotinamide], the IC50 is no more than 3 µM in assay [1], no more than 3 µM in assay [2], no more than 3 µM in assay [3] and less than 1 µM in assay [4].

Regarding `O=C(NOC[C@@H](O)CO)c1ccncc1Nc1ccc(I)cc1F` [Example 75, N-{[(2S)-2,3-dihydroxypropyl]oxy}-3-[(2-fluoro-4-iodophenyl)-amino]isonicotin-amide], the IC50 in assay [1] is no more than 3 µM; in assay [2], no more than 3 µM; in assay [3] it was no more than 3 µM; in assay [4], less than 1 µM.

In the case of `CCNC(=O)c1ccncc1Nc1ccc(I)cc1F` [Example 18, N-ethyl-3-[(2-fluoro-4-iodophenyl)amino]isonicotinamide], the IC50 in assay [1] is no more than 3 µM; in assay [2], no more than 3 µM; in assay [3], no more than 3 µM; in assay [4], less than 1 µM.

For `Cc1ccc(CC(=O)NC2CCN(C(=O)c3ccncc3Nc3ccc(I)cc3F)CC2)cc1` [Example 86, N-(1-{3-[(2-fluoro-4-iodophenyl)amino]isonicotinoyl}piperidin-4-yl)-2-(4-methylphenyl)acetamide], the IC50 is 3 to 10 µM in assay [1], no more than 3 µM in assay [2], 3 to 10 µM in assay [3] and less than 1 µM in assay [4].

With `O=C(NCCCCO)c1ccncc1Nc1ccc(I)cc1F` [Example 39, 3-[(2-fluoro-4-iodophenyl)amino]-N-(4-hydroxybutyl)-isonicotinamide], the IC50 in assay [1] was no more than 3 µM; in assay [2] it was no more than 3 µM; in assay [3] it was no more than 3 µM; in assay [4] it was less than 1 µM.

For `Cc1ccc(CCNC(=O)c2ccncc2Nc2ccc(I)cc2F)cc1` [Example 85, 3-[(2-fluoro-4-iodophenyl)amino]-N-[2-(4-methylphenyl)-ethyl]isonicotinamide], the IC50 in assay [1] is 3 to 10 µM; in assay [2] it was no more than 3 µM; in assay [3], 3 to 10 µM; in assay [4], less than 1 µM.

For the molecule `O=C(NCC(O)COc1ccccc1)c1ccncc1Nc1ccc(I)cc1F` (stereo not drawn) [Example 83], the IC50 in assay [1] is no more than 3 µM; in assay [2], no more than 3 µM; in assay [3], no more than 3 µM; in assay [4] it was less than 1 µM.

For the molecule `COCCNC(=O)c1ccncc1Nc1ccc(I)cc1F` [Example 16, 3-(2-Fluoro-4-iodo-phenylamino)-N-(2-methoxy-ethyl)-isonicotinamide], the IC50 in assay [1] was no more than 3 µM; in assay [2], no more than 3 µM; in assay [3] it was no more than 3 µM; in assay [4], less than 1 µM.

In the case of `O=C(NCCCCl)c1ccncc1Nc1ccc(I)cc1F` [Example 79, N-(3-chloropropyl)-3-[(2-fluoro-4-iodophenyl)-amino]isonicotinamide], the IC50 in assay [1] is no more than 3 µM; in assay [2] it was no more than 3 µM; in assay [3] it was no more than 3 µM; in assay [4] it was less than 1 µM.

As to `CCOC(CNC(=O)c1ccncc1Nc1ccc(I)cc1F)OCC` [Example 98, N-(2,2-diethoxyethyl)-3-[(2-fluoro-4-iodophenyl)amino]-isonicotinamide], the IC50 in assay [1] is 3 to 10 µM; in assay [2] it was no more than 3 µM; in assay [3], 3 to 10 µM; in assay [4] it was less than 1 µM.

In the case of `NC(=O)c1ccncc1Nc1ccc(I)cc1Cl` [Example 11, 3-[(2-chloro-4-iodophenyl)amino]isonicotinamide], the IC50 was no more than 3 µM in assay [1], no more than 3 µM in assay [2], no more than 3 µM in assay [3] and less than 1 µM in assay [4].

Turning to `CN(C)C(=O)c1ccncc1Nc1ccc(I)cc1Cl` [Example 23, 3-[(2-chloro-4-iodophenyl)amino]-N-dimethylisonicotinamide], the IC50 in assay [1] is no more than 3 µM; in assay [2], no more than 3 µM; in assay [3], no more than 3 µM; in assay [4] it was less than 1 µM.

`Cc1ccc(NNC(=O)c2ccncc2Nc2ccc(I)cc2F)cc1` [Example 99, 3-[(2-fluoro-4-iodophenyl)amino]-N′-(4-methylphenyl)isonicotino-hydrazide]: the IC50 in assay [1] was 3 to 10 µM; in assay [2] it was no more than 3 µM; in assay [3], 3 to 10 µM; in assay [4], less than 1 µM.

On to `O=C(NN1CCCCC1)c1ccncc1Nc1ccc(I)cc1F` [Example 19, 3-[(2-fluoro-4-iodophenyl)amino]-N-piperidin-1-ylisonicotinamide], for which the IC50 in assay [1] was no more than 3 µM; in assay [2], no more than 3 µM; in assay [3] it was 3 to 10 µM; in assay [4], less than 1 µM.

Take `O=C(NCCCn1ccnc1)c1cc(Br)ncc1Nc1ccc(I)cc1F` [Example 72, 2-Bromo-5-(2-fluoro-4-iodo-phenylamino)-N-(3-imidazol-1-yl-propyl)-isonicotinamide]: the IC50 in assay [1] is 3 to 10 µM; in assay [2], no more than 3 µM; in assay [3], 3 to 10 µM; in assay [4], less than 1 µM.

Turning to `NC(=O)c1ccnc(Cl)c1Nc1ccc(I)cc1F` [Example 31, 2-Chloro-3-(2-fluoro-4-iodo-phenylamino)-isonicotinamide], the IC50 is no more than 3 µM in assay [1], no more than 3 µM in assay [2], no more than 3 µM in assay [3] and less than 1 µM in assay [4].

As for `O=C(NCCCCCO)c1ccncc1Nc1ccc(I)cc1Cl` [Example 36, 3-(2-Chloro-4-iodo-phenylamino)-N-(5-hydroxy-pentyl)-isonicotinamide], the IC50 is no more than 3 µM in assay [1], no more than 3 µM in assay [2], no more than 3 µM in assay [3] and less than 1 µM in assay [4].

For the molecule `O=C(NN1CCOCC1)c1ccncc1Nc1ccc(I)cc1F` [Example 25, 3-[(2-fluoro-4-iodophenyl)amino]-N-morpholin-4-ylisonicotin-amide], the IC50 in assay [1] was no more than 3 µM; in assay [2], no more than 3 µM; in assay [3], no more than 3 µM; in assay [4], less than 1 µM.

On to `C=CCONC(=O)c1ccncc1Nc1ccc(I)cc1Cl` [Example 77, N-allyloxy-3-(2-chloro-4-iodo-phenylamino)-isonicotinamide], for which the IC50 in assay [1] is 3 to 10 µM; in assay [2] it was no more than 3 µM; in assay [3] it was 3 to 10 µM; in assay [4] it was less than 1 µM.

Take `CC(C)(C)OC(=O)NC1CCN(C(=O)c2ccncc2Nc2ccc(I)cc2F)CC1` [Example 34, tert-butyl(1-{3-[(2-fluoro-4-iodophenyl)amino]isonicotinoyl}-piperidin-4-yl)carbamate]: the IC50 in assay [1] was 3 to 10 µM; in assay [2], no more than 3 µM; in assay [3] it was 3 to 10 µM; in assay [4], less than 1 µM.

Turning to `O=C(NOC[C@H](O)CO)c1ccncc1Nc1ccc(I)cc1Cl` [Example 8, 3-[(2-chloro-4-iodophenyl)amino]-N-{[(2R)-2,3-dihydroxypropyl]oxy}-isonicotinamide], the IC50 in assay [1] was no more than 3 µM; in assay [2], no more than 3 µM; in assay [3], no more than 3 µM; in assay [4] it was less than 1 µM.

As to `O=C(NC1CC1)c1ccncc1Nc1ccc(I)cc1F` [Example 47, N-cyclopropyl-3-[(2-fluoro-4-iodophenyl)amino]isonicotinamide], the IC50 is no more than 3 µM in assay [1], no more than 3 µM in assay [2], no more than 3 µM in assay [3] and less than 1 µM in assay [4].

With `O=C(NCc1ccccc1)c1ccncc1Nc1ccc(I)cc1F` [Example 21, N-benzyl-3-[(2-fluoro-4-iodophenyl)amino]isonicotinamide], the IC50 in assay [1] is 3 to 10 µM; in assay [2], no more than 3 µM; in assay [3], 3 to 10 µM; in assay [4], less than 1 µM.

For `O=C(NCc1ccccn1)c1ccncc1Nc1ccc(I)cc1F` [Example 40, 3-[(2-fluoro-4-iodophenyl)amino]-N-(pyridin-2-ylmethyl)-isonicotinamide], the IC50 was 3 to 10 µM in assay [1], no more than 3 µM in assay [2], 3 to 10 µM in assay [3] and less than 1 µM in assay [4].

Regarding `O=C(NC1CC2CCC1C2)c1ccncc1Nc1ccc(I)cc1F` (stereo not drawn) [Example 82, N-bicyclo[2.2.1]hept-2-yl-3-[(2-fluoro-4-iodophenyl)amino]-isonicotinamide], the IC50 is 3 to 10 µM in assay [1], no more than 3 µM in assay [2], 3 to 10 µM in assay [3] and less than 1 µM in assay [4].

For `CC(C)(C)ONC(=O)c1ccncc1Nc1ccc(I)cc1Cl` [Example 65], the IC50 in assay [1] is 3 to 10 µM; in assay [2], no more than 3 µM; in assay [3], 3 to 10 µM; in assay [4], less than 1 µM.

Source of the values: US8524911B2, “3-arylamino pyridine derivatives” (Merck Serono SA, priority 2004, dated 2013).
